Like-named read-outs stand apart in the source and are kept apart here.
Experiments:
[1] = tested on: SH-SY5Y cells; assay: cells; conditions: for EC10: Homo sapiens, SH-SY5Y; for Specificity ratio (SRbaseline) SRNOI: against baseline cytotoxicity; for Relative effect potency REPNOI: relative to BPA; for EC10, linear / logEC10: NOI bioassay, dosing range all; for EC10, linear: linear model; for logEC10: log-logistic model;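 on Relative effect potency REPNOI: EC10 of BPA divided by EC10 of the test compound so values above 1 mean more potent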;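 on Specificity ratio (SRbaseline) SRNOI: ratio of predicted baseline cytotoxicity IC10 to the neurite outgrowth inhibition EC10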
From the text: All bioassay media components and the ERα-UAS-bla GripTite and PPARγ-UAS-bla cells were obtained from Thermo Fisher Scientific (Waltham, MA, USA). AREc32 reporter gene cells based on MCF7 were provided by C. Roland Wolf (Cancer Research UK); AhR CALUX cells (H4L7.5c2 derived from H4IIe) were provided by Michael Denison (UC Davis, USA); and SH-SY5Y cells were purchased from Sigma-Aldrich.
(§1) Cell culture conditions and bioassay protocols including response detection are provided in Text S2.1–2.4 and Table S3. − Cell viability was determined from cell confluency using an IncuCyte S3 Live-Cell Analysis System (Sartorius AG, Essen, Germany) before and after exposure, except for SH-SY5Y cells (live–dead staining with Nuclear Green LcS1 and propidium iodide, Abcam, UK). For metabolic activation experiments, cell viability was assessed using the ToxBLAzer DualScreen Kit (Thermo Fisher Scientific) to capture the remaining toxicity in ERα-UAS-bla GripTite after treatment with the aCYP catalyst (details in Text S2.4).
For ARE, the concentration that triggered an induction ratio of 1.5 (ECIR1.5) was used as the benchmark value, as detailed in Text S2.5. IC10 values also served as a threshold for data analysis in all assays; only concentrations below IC10 were considered when deriving EC10 or ECIR1.5. […]
S2: Cell culture and bioassays
S2.1: Cell Culturing Conditions
All suppliers and sources are given in detail in SI-Excel S3. The bioassay media for the different assays were prepared as follows: Assay medium for ER alpha-UAS-bla GripTite (ERα) and PPAR gamma-UAS-bla 293H (PPARγ) was prepared with 98% Opti-MEM, supplemented with 2% charcoal-stripped FBS, and 100 U/mL penicillin-streptomycin. MitoOxTox and AhR assay medium was comprised of 90% DMEM with GlutaMAX, supplemented with 10% FBS, and 100 U/mL penicillin-streptomycin. Neurotoxicity assay medium consisted of the neurobasal […]
(1 picture or pasted object on this page, not shown here) […]
medium, supplemented with 2% B-27 Supplement and 2 mM GlutaMAX Supplement. SH - SY5Y cells were differentiated with 10 µM all-trans retinoic acid prior to the assay.
S2.2: Cell Seeding and Incubation. For all bioassays, cell suspensions in the respective assay medium were dispensed into each well of 384-well plates using a MultiFlo Dispenser (Biotek, (now Agilent), Winooski, VT, U.S.). After seeding, the plates were incubated at 37° C and 5% CO₂ for […]. The final cell densities and plate types were as follows: Black poly-D-lysine coated 384-well plates (Product No. 354663, Corning Inc., NYC, U.S.) were used for PPARγ:
6500 cells/well, ERα: 5000 cells/well. White 384-well plates with a clear bottom (Product No.
781098, Greiner, Kremsmünster, Austria) were utilized for the MitoOxTox assay: 2650

[2] = Abiotic CYP (aCYP) oxidation, remaining parent compound (Cparent-Ratio); conditions: for Cparent-Ratio Rep.1 %: Table S9, replicate 1; for Cparent-Ratio Rep.2 %: Table S9, replicate 2
[3] = target: T1, Estrogen Receptor ERα (Homo sapiens, UniProt P03372); assay: aCYP oxidation followed by ERα-UAS-bla GripTite assay (TK-Ratio of effect); assay type: cell-based; conditions: for EC10, before oxidation / EC10, after oxidation: ERα, in M; for EC10, after oxidation: after abiotic CYP catalyst; for TKERα: TKERα-Ratio
T1 sequence (P03372 311-547 limits assumed): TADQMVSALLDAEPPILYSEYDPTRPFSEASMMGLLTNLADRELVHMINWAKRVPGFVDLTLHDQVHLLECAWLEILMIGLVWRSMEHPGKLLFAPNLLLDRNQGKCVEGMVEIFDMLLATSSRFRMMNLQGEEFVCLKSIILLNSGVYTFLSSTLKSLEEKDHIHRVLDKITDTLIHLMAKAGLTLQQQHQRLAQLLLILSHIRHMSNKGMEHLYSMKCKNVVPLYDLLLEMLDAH
Protocol: as §1, with “S2.4). […]” for “S2.4).”
The TK-Ratio method was used to evaluate the impact of abiotic CYP oxidation on the potency of tested compounds. […]
For experiments with the preceding aCYP activation, ERα cell viability was additionally calculated from the readout of the ToxBLAzer reagent. The ToxBLAzer assay was conducted following the manufacturer's instructions (Thermo Fisher, Waltham, MA, U.S.).13 Fluorescence intensity was recorded at the start of the assay ( Fwavelength(0h)) and after a 2-hour incubation at […]
Cell viability was assessed based on the red fluorescence signal at 665 nm, applying eq. S11 for normalization.
Cell viability = F665nm(2h, sample)-F665nm(0h, average cell-free) (S11) F665nm(2h, average unexposed)-F665nm(0h, average cell-free) […]
the specific endpoint to avoid artifacts from cytotoxicity burst. 15
S2.5: Concentration-response curves (CRCs)
To avoid bias from cytotoxicity burst at higher concentrations, all concentrations exceeding the IC10 for cytotoxicity were excluded in the CRC modeling of effects but otherwise cytotoxicity and effects were fitted with the same model equations (response stands for cytotoxicity or effect). For ERα, AhR, ARE and PPARγ preferably a linear model was fitted to the linear portion of CRC up to maximum 30% effect (eq. S12),16 but in some cases it was necessary to choose a sigmoidal log-concentration-response model, specifically a log-logistic model (eq. S13), to derive effect concentrations and cytotoxicity. For mitochondrial toxicity and neurotoxicity, the […]
are not reporter gene assays. Common practice when using log-logistic models, e.g., the model implemented in tcpl package in R,17, 18 is that the minima and maxima are also fitted and only median effect concentrations AC50 are derived. […]
concentrations (EC10) for both linear and log-sigmoidal CRCs to allow absolute comparisons at the same effect level and for TR and SR -analysis. This was done using the AutomatedBioassayScreening19 published by Braun et al.,20 which also included an algorithm to choose the best model between eq. S12 and eq. S13.
Response (%) = slope × C (S12) […]
logEC =logEC − 1 ∙log (max−min − 100%) (S14)

[4] = read-out: EC10, linear transformed
[5] = Table S9, loss of parent after aCYP oxidation
[6] = Table S9, mean of two replicate experiments
[7] = Table S9, replicate 1, as fraction
[8] = Table S9, replicate 2, as fraction
[9] = Table S11, measured simultaneously with bioassay

Structure (SMILES) | EC10 ([1]; read-out: EC10, NOI) [M] | EC10 ([1]; read-out: EC10, NOI (M)) [M] | EC10 ([1]; read-out: EC10, linear) [M] | EC10 [1, 4] [M] | EC10 ([1]; read-out: logEC10) [M] | Specificity ratio (SRbaseline) SRNOI [1] | Relative effect potency REPNOI [1] | % Loss [2, 5] [%] | Cparent-Ratio Mean [2, 6] | Cparent-Ratio Rep.1 % [2] [%] | Cparent-Ratio Rep.1 [2, 7] | Cparent-Ratio Rep.2 % [2] [%] | Cparent-Ratio Rep.2 [2, 8] | EC10, before oxidation ([3]; Table S10) | EC10, linear [1] | logEC10 [1] | EC10, after oxidation ([3]; Table S10) | TKERα ([3]; Table S10) | EC10, after oxidation ([3]; Table S11) | EC10, before oxidation ([3]; Table S11) | also measured
CC1(C)C(O)C(C)(C)C1O (racemic) [r-TMCD, 2,2,4,4-Tetramethyl-1,3-cyclobutanediol (racemate)] | 0.00599 | 0.00599 | 0.00494 | 0.00599 | 0.00603 | 0.17 | 0.00848 | 1.72 | 0.98 | 94.58 | 0.95 | 101.99 | 1.02 | 1.18E-02 | – | – | – | – | – | – | –
O=S(=O)(c1ccc(O)cc1)c1ccccc1O [2,4-BPS, 2,4'-Dihydroxydiphenyl sulfone] | – | – | – | 0.000871 | – | – | – | – | – | – | – | – | – | 3.59E-05 | no effect | no effect | – | – | – | – | –
CC(C)(c1ccc(O)cc1)c1ccc(O)cc1 [BPA, 4,4'-(Propane-2,2-diyl)diphenol, reference compound] | 5.08e-05 | 5.08e-05 | 7.16e-05 | 7.63e-05 | 5.13e-05 | 0.40 | 1.00 | 15 | 0.85 | 86.04 | 0.86 | 84.76 | 0.85 | 3.70E-07 | – | – | 4.48E-07 | 0.827 | 3.06E-07 | 3.74E-07 | Specificity ratio (SRcytotoxicity) SRNOI ([1]; human, 24 h): 4.68; SR (neurite outgrowth inhibition) ([1]; specificity ratio): < 10; reduction of C parent after aCYP oxidation ([2]; 15 min, 30 °C): 15%; % Loss ([2]; Table S11): 11%; Cparent-Ratio Mean [2, 9]: 0.89; Cparent-Ratio Rep.1 [2, 9]: 0.90; Cparent-Ratio Rep.2 [2, 9]: 0.88; estrogenic activity after aCYP oxidation [3]: remained unchanged or decreased; TKERα ([3]; Table S11): 1.22
CCC(C)(c1ccc(O)cc1)c1ccc(O)cc1 [BPB, 4,4'-(Butane-2,2-diyl)diphenol] | 2.8e-05 | 2.8e-05 | 4.03e-05 | 3.89e-05 | 2.82e-05 | 0.59 | 1.81 | – | – | – | – | – | – | 1.07E-07 | – | – | 3.59E-07 | 0.2982 | – | – | Specificity ratio (SRcytotoxicity) SRNOI ([1]; against experimental cytotoxicity): 5.98
Oc1ccc(Cc2ccc(O)cc2)cc1 [BPF, Bis(4-hydroxyphenyl)methane] | – | – | – | 0.000697 | – | – | – | – | – | – | – | – | – | 9.67E-07 | no effect | no effect | 1.00E-06 | 0.964 | 1.36E-06 | 1.26E-06 | TKERα ([3]; Table S11): 0.93
CC(C)c1cc(C(C)(C)c2ccc(O)c(C(C)C)c2)ccc1O [BPG, 2,2-Bis(4-hydroxy-3-isopropylphenyl)propane] | – | – | – | 2.67e-05 | – | – | – | 15 | 0.85 | 67.85 | 0.68 | 102.05 | 1.02 | 9.02E-07 | no effect | no effect | 3.40E-06 | 0.2649 | 1.51E-05 | 9.71E-06 | % Loss ([2]; Table S11): 34%; Cparent-Ratio Mean [2, 9]: 0.66; Cparent-Ratio Rep.1 [2, 9]: 0.79; Cparent-Ratio Rep.2 [2, 9]: 0.53; TKERα ([3]; Table S11): 0.64
O=S(=O)(c1ccc(O)cc1)c1ccc(O)cc1 [BPS, 4,4'-Sulfonyldiphenol] | – | – | – | 0.000411 | – | – | – | – | – | – | – | – | – | 1.65E-06 | no effect | no effect | 1.48E-06 | 1.115 | – | – | –
